The term IC50 denotes the concentration that gives 50% inhibition. Lower therefore signals higher potency.

The subject of experiment [1] is Human gastric cancer cells (MKN-45). Put plainly: Inhibitory activity against the proliferation of human gastric cancer cells (MKN-45). It counts as cell-based. The following applies: 72 h, MKN-45, 1% FBS RPMI1640, 3 days, Cell Counting Kit-8. In short, it runs like this: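 MKN-45 cells seeded overnight in RPMI1640 with 1% FBS, then exposed to compound for 3 days at 37° C, 5% CO2. Viability read with CCK-8 after about 1.5 hrs, absorbance at 450 nm (reference 660 nm).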
A general note: Tetrazolium dyes change colour on reduction, which living cells bring about.

The target of experiment [2] is T1, HGFR (Homo sapiens, UniProt P08581).
T1 construct: endogenous in cells; host or cells: MKN-45 human gastric cancer cells
Put plainly: Inhibitory activity against the HGFR autophosphorylation using ELISA (MKN-45 cells). It is filed as cell-based. As to conditions: 1 hr with test substance. In short, it runs like this:
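MKN-45 gastric cancer cells, plated overnight in 1% FBS RPMI1640, treated with compound 1 h at 37° C and lysed. Lysate captured on anti-phosphotyrosine (PY20) plates, probed with anti-HGFR then HRP anti-rabbit IgG; TMB absorbance at 450 nm. Activity expressed as % of untreated extract (100%) versus lysis buffer blank (0%).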

T1 sequence (P08581 25-1390): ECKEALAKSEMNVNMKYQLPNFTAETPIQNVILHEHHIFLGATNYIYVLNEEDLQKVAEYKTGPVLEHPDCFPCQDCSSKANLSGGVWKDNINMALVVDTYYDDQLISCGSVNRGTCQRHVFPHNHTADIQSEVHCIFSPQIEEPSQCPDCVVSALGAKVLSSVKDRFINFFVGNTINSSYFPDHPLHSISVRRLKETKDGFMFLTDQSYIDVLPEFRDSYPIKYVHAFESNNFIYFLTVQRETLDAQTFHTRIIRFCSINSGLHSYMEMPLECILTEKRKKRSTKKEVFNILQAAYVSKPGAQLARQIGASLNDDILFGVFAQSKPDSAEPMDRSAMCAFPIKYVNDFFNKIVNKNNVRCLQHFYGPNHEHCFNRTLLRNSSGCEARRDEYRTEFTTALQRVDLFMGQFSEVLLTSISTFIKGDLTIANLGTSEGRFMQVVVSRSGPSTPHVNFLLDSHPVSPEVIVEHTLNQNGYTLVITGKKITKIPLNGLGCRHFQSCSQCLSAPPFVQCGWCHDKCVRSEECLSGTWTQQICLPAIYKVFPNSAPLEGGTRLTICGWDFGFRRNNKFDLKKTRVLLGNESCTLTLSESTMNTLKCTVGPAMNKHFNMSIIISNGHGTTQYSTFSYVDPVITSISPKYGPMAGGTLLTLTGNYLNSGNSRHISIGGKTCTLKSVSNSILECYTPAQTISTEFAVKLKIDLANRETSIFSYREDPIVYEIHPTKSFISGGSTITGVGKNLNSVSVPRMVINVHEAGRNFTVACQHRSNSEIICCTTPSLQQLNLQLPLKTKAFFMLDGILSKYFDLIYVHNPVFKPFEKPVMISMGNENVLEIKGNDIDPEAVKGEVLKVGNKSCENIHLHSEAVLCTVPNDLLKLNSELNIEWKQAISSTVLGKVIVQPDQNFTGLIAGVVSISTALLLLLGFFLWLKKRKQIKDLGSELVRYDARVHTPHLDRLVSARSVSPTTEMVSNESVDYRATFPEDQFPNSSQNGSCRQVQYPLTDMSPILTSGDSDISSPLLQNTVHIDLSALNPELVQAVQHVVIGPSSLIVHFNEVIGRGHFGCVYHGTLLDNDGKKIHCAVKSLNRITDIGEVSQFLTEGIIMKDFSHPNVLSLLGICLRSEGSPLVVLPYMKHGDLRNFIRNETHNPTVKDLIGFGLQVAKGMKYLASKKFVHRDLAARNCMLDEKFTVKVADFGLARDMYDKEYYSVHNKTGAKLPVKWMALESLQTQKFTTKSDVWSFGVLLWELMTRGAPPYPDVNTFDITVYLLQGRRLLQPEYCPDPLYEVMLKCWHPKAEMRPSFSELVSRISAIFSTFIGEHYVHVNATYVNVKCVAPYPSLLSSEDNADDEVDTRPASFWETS

Consider `CN1CCN(C(=O)Nc2cc(Oc3cc(F)c(NC(=O)C4(C(=O)Nc5ccc(F)cc5)CC4)cc3F)ccn2)CC1` [Example 104, N-{2,5-Difluoro-4-[(2-{[(4-methylpiperazin-1-yl)carbonyl]amino}pyridin-4-yl]oxy}phenyl)-N′-(4-fluorophenyl)cyclopropane-1,1-dicarboxamide], for which the IC50 in experiment [1] is 6.8 nM; in experiment [2], 15 nM.

Take `CN(C)C1CN(C2CCN(C(=O)Nc3cc(Oc4ccc(NC(=O)C5(C(=O)Nc6ccc(F)cc6)CC5)c(F)c4)ccn3)CC2)C1` [Example 14, N-[4-({2-[({4-[3-(Dimethylamino)azetidin-1-yl]piperidin-1-yl}carbonyl)amino]pyridin-4-yl}oxy)-2-fluorophenyl]-N′-(4-fluorophenyl)cyclopropane-1,1-dicarboxamide]: the IC50 in experiment [1] stood at 17 nM; in experiment [2] it was 19 nM.

Consider `CN1CCN(C2CCN(C(=O)Nc3cc(Oc4ccc(NC(=O)C5(C(=O)Nc6ccc(F)cc6)CC5)cc4)ccn3)CC2)CC1` [Example 32, N-(4-Fluorophenyl)-N′-(4-{[2-({[4-(4-methylpiperazin-1-yl)piperidin-1-yl]carbonyl}amino)pyridin-4-yl]oxy}phenyl)cyclopropane-1,1-dicarboxamide], for which the IC50 in experiment [1] turned out to be 27 nM; in experiment [2] it was 15 nM.

`CN1CCC(N(C)C(=O)Nc2cc(Oc3ccc(NC(=O)C4(C(=O)Nc5ccc(F)cc5)CC4)cc3F)ccn2)CC1` [Example 1, N-(3-Fluoro-4-{[2-({[methyl(1-methylpiperidin-4-yl)amino]carbonyl}amino)pyridin-4-yl]oxy}phenyl)-N′-(4-fluorophenyl)cyclopropane-1.1-dicarboxamide]: the IC50 turned out to be 13 nM in experiment [1] and 18 nM in experiment [2].

For the compound `O=C(Nc1cc(Oc2ccc(NC(=O)C3(C(=O)Nc4ccc(F)cc4)CC3)c(F)c2)ccn1)N1CC(CO)C1` [Example 75], the IC50 in experiment [1] turned out to be 19 nM; in experiment [2] it was 13 nM.

Turning to `O=C(Nc1cc(Oc2ccc(NC(=O)C3(C(=O)Nc4ccc(F)cc4)CC3)c(F)c2)ccn1)N1CCC(N2CCNCC2)CC1` [Example 71, N-(4-Fluorophenyl)-N′-{2-fluoro-4-[(2-{[(4-piperazin-1-ylpiperidin-1-yl)carbonyl]amino}pyridin-4-yl)oxy]phenyl}cyclopropane-1,1-dicarboxamide], the half-inhibitory concentration (IC50) in experiment [1] was 61 nM; in experiment [2] it was 11 nM.

For `O=C(Nc1cc(Oc2ccc(NC(=O)C3(C(=O)Nc4ccc(F)cc4)CC3)cc2F)ccn1)N1CCC1` [Example 65, N-[4-({2-[(Azetidin-1-ylcarbonyl)amino]pyridin-4-yl}oxy)-3-fluorophenyl]-N′-(4-fluorophenyl)cyclopropane-1,1-dicarboxamide], the IC50 is 23 nM in experiment [1] and 10 nM in experiment [2].

On to `CN1CCC(N(C)C(=O)Nc2cc(Oc3ccc(NC(=O)C4(C(=O)Nc5ccc(F)cc5F)CC4)c(F)c3)ccn2)CC1` [Example 56, N-(2,4-Difluorophenyl)-N′-(2-fluoro-4-{[2-({[methyl(1-methylpiperidin-4-yl)amino]carbonyl}amino)pyridin-4-yl]oxy}phenyl)cyclopropane-1,1-dicarboxamide], for which the figures for the concentration for half-maximal inhibition (IC50) in experiment [1] and in experiment [2] were 53 nM and 41 nM, respectively.

Turning to `O=C(Nc1cc(Oc2ccc(NC(=O)C3(C(=O)Nc4ccc(F)cc4)CC3)c(F)c2)ccn1)N1CCC(N2CCC2)CC1` [Example 9, N-{4-[(2-{[(4-Azetidin-1-ylpiperidin-1-yl)carbonyl]amino}pyridin-4-yl)oxy]-2-fluorophenyl}-N′-(4-fluorophenyl)cyclopropane-1,1-dicarboxamide], the IC50 in experiment [1] was found to be 26 nM; in experiment [2] it was 11 nM.

Take `O=C(Nc1cc(Oc2ccc(NC(=O)C3(C(=O)Nc4ccc(F)cc4)CC3)cc2)ccn1)N1CCC(CN2CCCC2)CC1` [Example 29, N-(4-Fluorophenyl)-N′-(4-{[2-({[4-(pyrrolidin-1-ylmethyl)piperidin-1-yl]-carbonyl}amino)pyridin-4-yl]oxy}phenyl)cyclopropane-1,1-dicarboxamide]: the IC50 in experiment [1] was 50 nM; in experiment [2], 30 nM.

With `CN(C)[C@@H]1CCN(C(=O)Nc2cc(Oc3ccc(NC(=O)C4(C(=O)Nc5ccc(F)cc5)CC4)cc3)ccn2)C1` [Example 42, N-(4-{[2-({[(3R)-3-(Dimethylamino)pyrrolidin-1-yl]carbonyl}amino)pyridin-4-yl]oxy}phenyl)-N′-(4-fluorophenyl)cyclopropane-1,1-dicarboxamide], the values for the IC50 in experiment [1] and in experiment [2] were 60 nM and 42 nM, respectively.

Turning to `CN1CCC(N2CCN(C(=O)Nc3cc(Oc4ccc(NC(=O)C5(C(=O)Nc6ccc(F)cc6)CC5)cc4F)ccn3)CC2)CC1` [Example 19, N-(3-Fluoro-4-{[2-({[4-(1-methylpiperidin-4-yl)piperazin-1-yl]carbonyl}amino)pyridin-4-yl]oxy}phenyl)-N′-(4-fluorophenyl)cyclopropane-1,1-dicarboxamide], the values for the concentration for half-maximal inhibition (IC50) in experiment [1] and in experiment [2] were 12 nM and 23 nM, respectively.

As to `O=C(Nc1cc(Oc2ccc(NC(=O)C3(C(=O)Nc4ccc(F)cc4)CC3)c(F)c2)ccn1)N1CCCC1` [Example 62, N-(4-Fluorophenyl)-N′-[2-fluoro-4-({2-[(pyrrolidin-1-ylcarbonyl)amino]pyridin-4-yl}oxy)phenyl]cyclopropane-1,1-dicarboxamide], the half-inhibitory concentration (IC50) in experiment [1] was found to be 25 nM; in experiment [2] it was 11 nM.

Turning to `O=C(Nc1cc(Oc2ccc(NC(=O)C3(C(=O)Nc4ccc(F)cc4)CC3)cc2F)ncn1)N1CCC(N2CCC2)CC1` [Example 34, N-{4-[(6-{[(4-Azetidin-1-ylpiperidin-1-yl)carbonyl]amino}pyrimidin-4-yl)oxy]-3-fluorophenyl}-N′-(4-fluorophenyl)cyclopropane-1,1-dicarboxamide], the IC50 in experiment [1] was 190 nM; in experiment [2], 81 nM.

`CN1CC(N2CCN(C(=O)Nc3cc(Oc4ccc(NC(=O)C5(C(=O)Nc6ccc(F)cc6)CC5)cc4F)ccn3)CC2)C1` [Example 22, N-(3-Fluoro-4-{[2-({[4-(1-methylazetidin-3-yl)piperazin-1-yl]carbonyl}amino)pyridin-4-yl]oxy}phenyl)-N′-(4-fluorophenyl)cyclopropane-1,1-dicarboxamide]: the IC50 in experiment [1] came out at 13 nM; in experiment [2] it was 21 nM.

With `O=C(Nc1cc(Oc2ccc(NC(=O)C3(C(=O)Nc4ccc(F)cc4)CC3)cc2F)ccn1)N1CC(O)C1` [Example 80, N-{3-Fluoro-4-[(2-{[(3-hydroxyazetidin-1-yl)carbonyl]amino}pyridin-4-yl)oxy]phenyl}-N′-(4-fluorophenyl)cyclopropane-1,1-dicarboxamide], the values for the IC50 in experiment [1] and in experiment [2] were 18 nM and 14 nM, respectively.

For `O=C(Nc1cc(Oc2ccc(NC(=O)C3(C(=O)Nc4ccc(F)cc4)CC3)cc2F)ccn1)N1CCC(CN2CCC2)CC1` [Example 26, N-(4-{[2-({[4-(Azetidin-1-ylmethyl)piperidin-1-yl]carbonyl}amino)pyridin-4-yl]oxy}-3-fluorophenyl)-N′-(4-fluorophenyl)cyclopropane-1,1-dicarboxamide], the IC50 was 19 nM in experiment [1] and 8.4 nM in experiment [2].

Turning to `O=C(Nc1cc(Oc2ccc(NC(=O)C3(C(=O)Nc4ccc(F)cc4)CC3)c(F)c2)ccn1)N1CC(O)C1` [Example 72, N-{2-Fluoro-4-[(2-{[(3-hydroxyazetidin-1-yl)carbonyl]amino}pyridin-4-yl)oxy]phenyl}-N′-(4-fluorophenyl)cyclopropane-1,1-dicarboxamide], the half-maximal inhibitory concentration (IC50) in experiment [1] is 22 nM; in experiment [2] it was 10 nM.

Take `CCN(CC)CCCN(C)C(=O)Nc1cc(Oc2ccc(NC(=O)C3(C(=O)Nc4ccc(F)cc4)CC3)cc2F)ccn1` [Example 44, N-(4-{[2-({[[3-(Diethylamino)propyl](methyl)amino]carbonyl}amino)pyridin-4-yl]oxy}-3-fluorophenyl)-N′-(4-fluorophenyl)cyclopropane-1,1-dicarboxamide]: the half-inhibitory concentration (IC50) amounted to 54 nM in experiment [1] and 80 nM in experiment [2].

Turning to `CN1CCC(N(C)C(=O)Nc2cc(Oc3ccc(NC(=O)C4(C(=O)Nc5ccccc5)CC4)c(F)c3)ccn2)CC1` [Example 48, N-(2-Fluoro-4-{[2-({[methyl(1-methylpiperidin-4-yl)amino]carbonyl}amino)pyridin-4-yl]oxy}phenyl)-N′-phenylcyclopropane-1,1-dicarboxamide], the IC50 came out at 17 nM in experiment [1] and 12 nM in experiment [2].

Take `CCN1CCC(N(C)C(=O)Nc2cc(Oc3ccc(NC(=O)C4(C(=O)Nc5ccccc5)CC4)c(F)c3)ccn2)CC1` [Example 60, N-(4-{[2-({[(1-Ethylpiperidin-4-yl)(methyl)amino]carbonyl}amino)pyridin-4-yl]oxy}-2-fluorophenyl)-N′-phenylcyclopropane-1′-dicarboxamide]: the IC50 in experiment [1] was 15 nM; in experiment [2], 8 nM.

For `O=C(Nc1cc(Oc2ccc(NC(=O)C3(C(=O)Nc4ccc(F)cc4)CC3)cc2F)ccn1)N1CCOCC1` [Example 67, N-[3-Fluoro-4-({2-[(morpholin-4-ylcarbonyl)amino]pyridin-4-yl}oxy)phenyl]-N′-(4-fluorophenyl)-cyclopropane-1,1-dicarboxamide], the figures for the IC50 in experiment [1] and in experiment [2] were 52 nM and 10 nM, respectively.

With `O=C(Nc1cc(Oc2ccc(NC(=O)C3(C(=O)Nc4ccc(F)cc4)CC3)c(F)c2)ccn1)N1CCC(CN2CCCC2)CC1` [Example 40, N-(4-Fluorophenyl)-N′-(2-fluoro-4-{[2-({[4-(pyrrolidin-1-ylmethyl)piperidin-1-yl]carbonyl}amino)pyridin-4-yl]oxy}phenyl)cyclopropane-1,1-dicarboxamide], the IC50 stood at 17 nM in experiment [1] and 8 nM in experiment [2].

Source of the values: patent US7855290B2, “Pyridine derivatives and pyrimidine derivatives (3)” (Eisai R&D Management Co., Ltd., priority 2005, dated 2010).
